Key:
Format in all cases: biochemical
α-glycosidase = assay: α-Glycosidase inhibitory effect (p-nitrophenyl-α-D glucopyranoside substrate); conditions: enzyme 2 U/mL, phosphate buffer pH 6.8, 37 °C; nd: not detected
Protocol: α-glycosidase inhibitory effect of the newly synthesized samples that were solvated in DMSO was performed with some minor modifications of the standard method. The activity degree of the enzyme solution was adjusted as 2 U/mL in phosphate buffer (pH 6.8, 50 mM). For each test tube, 150 μL of the sample, 150 μL of the enzyme (2 U/mL), and 150 μL of buffer were pipetted. After the incubation for 15 min at 37 °C, 150 μL of p-nitrophenyl-α-D glucopyranoside (20 mM, Sigma-Aldrich) was added and then their absorbance was monitored for 20 min at 400 nm.

tyrosinase = tyrosinase (Agaricus bisporus, UniProt C7FF04); assay: Tyrosinase from mushroom inhibitory effect (L-DOPA substrate, 475 nm); conditions: phosphate buffer pH 6.8, read-out: IC50 on tyrosinase (Tyr)
Sequence of tyrosinase (C7FF04 1-392 limits assumed): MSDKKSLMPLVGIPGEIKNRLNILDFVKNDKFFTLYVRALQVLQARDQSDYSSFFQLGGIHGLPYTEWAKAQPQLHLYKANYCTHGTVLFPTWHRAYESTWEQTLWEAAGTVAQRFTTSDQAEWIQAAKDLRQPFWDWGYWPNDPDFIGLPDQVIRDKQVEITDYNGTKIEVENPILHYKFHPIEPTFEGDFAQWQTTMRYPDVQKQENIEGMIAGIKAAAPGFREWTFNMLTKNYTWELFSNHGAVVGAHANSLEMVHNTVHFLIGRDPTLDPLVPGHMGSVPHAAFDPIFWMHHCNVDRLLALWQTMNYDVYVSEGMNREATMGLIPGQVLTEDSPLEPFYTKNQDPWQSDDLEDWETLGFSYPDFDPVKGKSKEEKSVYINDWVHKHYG
Protocol: The tyrosinase inhibitory effects of the newly synthesized compounds were performed using microplate reader with minor modifications according to the standard method. […] The activity of tyrosinase solution was adjusted as 250 U/mL in phosphate buffer (pH 6.8, 100 mM). For each wells, 100 μL buffer (pH 6.8, 100 mM), 20 μL of tyrosinase (0.2 U/mL), and 20 μL of compounds were added and incubated 20 min. After incubation, 20 μL of 3,4-dihydroxy-L-phenylalanine (3 mM) was pipetted into wells. Absorbance was measured at 475 nm.

AChE = AChE (Electrophorus electricus, UniProt O42275); conditions: electric eel AChE, Tris-HCl buffer pH 8.0
Sequence of AChE (O42275 24-633): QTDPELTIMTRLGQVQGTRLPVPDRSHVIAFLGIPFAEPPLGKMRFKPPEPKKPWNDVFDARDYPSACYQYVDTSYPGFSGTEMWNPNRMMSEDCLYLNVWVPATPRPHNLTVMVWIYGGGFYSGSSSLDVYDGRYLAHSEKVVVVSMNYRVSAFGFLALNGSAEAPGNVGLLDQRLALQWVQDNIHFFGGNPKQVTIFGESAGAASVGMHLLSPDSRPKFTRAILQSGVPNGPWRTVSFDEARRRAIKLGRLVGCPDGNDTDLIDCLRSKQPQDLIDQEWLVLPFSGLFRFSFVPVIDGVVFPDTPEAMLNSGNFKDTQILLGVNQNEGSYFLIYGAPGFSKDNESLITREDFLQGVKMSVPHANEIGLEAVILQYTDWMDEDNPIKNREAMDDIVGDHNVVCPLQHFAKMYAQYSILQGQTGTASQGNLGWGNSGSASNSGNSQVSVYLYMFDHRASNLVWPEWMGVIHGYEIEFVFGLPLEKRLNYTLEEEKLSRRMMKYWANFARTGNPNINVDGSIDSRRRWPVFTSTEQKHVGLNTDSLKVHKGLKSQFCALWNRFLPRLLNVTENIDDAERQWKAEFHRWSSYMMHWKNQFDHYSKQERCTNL
Protocol: The AChE from electric eel inhibitory effects of the newly synthesized compounds were performed using microplate reader with minor modification according to the standard method. […] The activity of AChE solution was adjusted as 0.2 U/mL in Tris-HCl buffer (pH 8.0, 50 mM). For each wells, 50 μL buffer (pH 8.0, 50 mM), 125 μL 5,5-dithio-bis(2-nitrobenzoic)acid (3 mM), 25 μL of AChE (0.2 U/mL) and 25 μL of compounds were added and incubated 20 min at room temperature. After incubation, 25 μL of acetylthiocholine iodide (15 mM) was pipetted into wells. Absorbance was measured at 412 nm.

COc1ccccc1/C=C/C(=O)c1cc(OC2OC(CO)C(O)C(O)C2O)cc(OC2OC(CO)C(O)C(O)C2O)c1 [17a, (2E)-1-(3,5-di-O-β-D-glucopyranosylphenyl)-3-(2-methoxyphenyl)-prop-2-en-1-one]
IC50 (α-glycosidase): 23600 ± 900 µM | IC50 (tyrosinase): > 100 µM | IC50 (AChE): > 100 µM

COc1ccccc1/C=C/C(=O)c1cc(O)cc(O[C@@H]2O[C@H](CO)[C@@H](O)[C@H](O)[C@H]2O)c1 [16a, (2E)-1-(3-O-β-D-glucopyranosyl-5-hyroxyphenyl)-3-(2-methoxyphenyl)-prop-2-en-1-one]
IC50 (α-glycosidase): 12870 ± 90 µM | IC50 (tyrosinase): > 100 µM | IC50 (AChE): > 100 µM

COc1cccc(/C=C/C(=O)c2cc(OC3OC(CO)C(O)C(O)C3O)cc(OC3OC(CO)C(O)C(O)C3O)c2)c1 [17b, (2E)-1-(3,5-di-O-β-D-glucopyranosylphenyl)-3-(3-methoxyphenyl)-prop-2-en-1-one]
IC50 (α-glycosidase): 16600 ± 620 µM | IC50 (tyrosinase): > 100 µM | IC50 (AChE): > 100 µM

COc1ccc(/C=C/C(=O)c2cc(OC3OC(CO)C(O)C(O)C3O)cc(OC3OC(CO)C(O)C(O)C3O)c2)cc1 [17c, (2E)-1-(3,5-di-O-β-D-glucopyranosylphenyl)-3-(4-methoxyphenyl)-prop-2-en-1-one]
IC50 (α-glycosidase): 16300 ± 630 µM | IC50 (tyrosinase): 34.4 ± 1.74 µM | IC50 (AChE): > 100 µM

COc1cc(C(=O)/C=C/c2cccc(OC3OC(CO)C(O)C(O)C3O)c2)ccc1OC1OC(CO)C(O)C(O)C1O [8b, (2E)-1-(4-O-β-D-glucopyranosyl-3-methoxyphenyl)-3-(3-O-β-D-glucopyranosylphenyl)-prop-2-en-1-one]
IC50 (tyrosinase): > 100 µM | IC50 (AChE): 81.8 ± 3.4 µM

COc1cc(C(=O)/C=C/c2ccc(O)cc2)ccc1OC1OC(CO)C(O)C(O)C1O [7c, (2E)-1-(4-O-β-D-glucopyranosyl-3-methoxyphenyl)-3-(4-hydroxyphenyl)prop-2-en-1-one]
IC50 (tyrosinase): 11.1 ± 0.55 µM | IC50 (AChE): > 100 µM

COc1ccc(/C=C/C(=O)c2cc(O)cc(O[C@@H]3O[C@H](CO)[C@@H](O)[C@H](O)[C@H]3O)c2)cc1 [16c, (2E)-1-(3-O-β-D-glucopyranosyl-5-hydroxyphenyl)-3-(4-methoxyphenyl)-prop-2-en-1-one]
IC50 (α-glycosidase): 6800 ± 60 µM | IC50 (tyrosinase): > 100 µM | IC50 (AChE): > 100 µM

COc1cccc(/C=C/C(=O)c2cc(O)cc(O[C@@H]3O[C@H](CO)[C@@H](O)[C@H](O)[C@H]3O)c2)c1 [16b, (2E)-1-(3-O-β-D-glucopyranosyl-5-hyroxyphenyl)-3-(3-methoxyphenyl)-prop-2-en-1-one]
IC50 (α-glycosidase): 6600 ± 50 µM | IC50 (tyrosinase): > 100 µM | IC50 (AChE): > 100 µM

COc1cc(C(=O)/C=C/c2cccc(O)c2)ccc1O[C@@H]1O[C@H](CO)[C@@H](O)[C@H](O)[C@H]1O [7b, (2E)-1-(4-O-β-D-glucopyranosyl-3-methoxyphenyl)-3-(3-hydroxyphenyl)prop-2-en-1-one]
IC50 (tyrosinase): 82.5 ± 4.5 µM | IC50 (AChE): > 100 µM

COc1cc(C(=O)/C=C/c2ccccc2O)ccc1O[C@@H]1O[C@H](CO)[C@@H](O)[C@H](O)[C@H]1O [7a, (2E)-1-(4-O-β-D-glucopyranosyl-3-methoxyphenyl)-3-(2-hydroxyphenyl)prop-2-en-1-one]
IC50 (tyrosinase): > 100 µM | IC50 (AChE): > 100 µM

COc1cc(C(=O)/C=C/c2ccccc2O[C@@H]2O[C@H](CO)[C@@H](O)[C@H](O)[C@H]2O)ccc1O[C@@H]1O[C@H](CO)[C@@H](O)[C@H](O)[C@H]1O [8a, (2E)-1-(4-O-β-D-glucopyranosyl-3-methoxyphenyl)-3-(2-O-β-D-glucopyranosylphenyl)-prop-2-en-1-one]
IC50 (tyrosinase): > 100 µM | IC50 (AChE): > 100 µM

COc1cc(C(=O)/C=C/c2ccc(O[C@@H]3O[C@H](CO)[C@@H](O)[C@H](O)[C@H]3O)cc2)ccc1O[C@@H]1O[C@H](CO)[C@@H](O)[C@H](O)[C@H]1O [8c, (2E)-1-(4-O-β-D-glucopyranosyl-3-methoxyphenyl)-3-(4-O-β-D-glucopyranosylphenyl)-prop-2-en-1-one]
IC50 (tyrosinase): 53.6 ± 2.31 µM | IC50 (AChE): > 100 µM

From paper PMC10504015, “Design, synthesis, and enzyme inhibition evaluation of some novel Mono- and Di-O-β-D-Glycopyranosyl Chalcone analogues with molecular docking studies” (Turkish Journal of Chemistry, 2022)
